Assay [1] has as its target T1, p53 (Homo sapiens, UniProt P04637).
T1 construct: HEK 293 (p53^+/+) cells; endogenous in cells; host or cells: HEK 293
As to the kind of experiment: Indirect immunofluorescence of p53 in peptide-treated HEK 293 cells (confocal imaging). It counts as cell-based. To be noted: HEK 293, 10 μM peptide, 12 h. How it is done: HEK 293 cells were treated with 10 μM of various TAT-SMAR1 derived peptides.
FIG. 4. Serine 347 residue of SMAR1 mediates p53 activation and stabilization. A, HEK 293 cells were cultured at a density of 5×10^5 cells and 24 h later treated with 10 μM concentration of either the P44 or various serine-mutant peptides (PS347A, PS348A, PS349A, PS350A and RS mutant; SM). After 12 h of treatment, protein lysates were prepared and immunoblotted using pSer-15 p53 and pcdc-2 antibodies. Actin was used as the loading control. B, Peptides P44 (panel B), PS347A (panel C), PS348A (panel D), PS349A (panel E), PS350A (panel F) and SM (panel G) were incubated at a final concentration of 10 μM with HEK 293 cells for 12 h before indirect immunofluorescence detection with a primary antibody against p53 protein and a secondary fluorescein-conjugated anti-mouse IgG.
Immunocytochemistry and confocal imaging: For direct detection of TRITC-labeled peptides, HEK 293 cells were plated directly on a glass coverslip and cultured overnight prior to their treatment to TRITC-conjugated various TAT-SMAR1 derived peptides. After 12 h incubation, three washings with cold PBS were given and the cells fixed with 3.7% paraformaldehyde before being mounted in PBS/Glycerol (1:1) containing antifading agent. For indirect immunodetection, 2×10^5 HEK 293 cells were plated and cultured overnight in 35 mm plates on glass coverslips. The cell monolayer was then treated with either of the various TAT SMAR1 derived peptides, dissolved directly in complete DMEM medium at the appropriate concentration (final concentration 10 μM). After 12 h incubation, cells were washed twice with cold PBS and fixed with 3.7% paraformaldehyde. Subsequently, fixed cells were stained for total p53 using anti-p53 (DO-1) (SantaCruz) for an hour at room temperature.
For detection, cells were incubated with a secondary-antibody mix containing FITC-conjugated anti-mouse IgG antibodies (Sigma) for 1 h at RT. Slides were then mounted in antifade mounting medium (Dako) and analyzed with a confocal laser scanning microscope (CLSM 510, version 2.01; Zeiss, Thornwood, N.Y.).

Assay [2] deals with cdc2 (tyrosine 15 phosphorylation, pcdc-2). The experiment in a line: Western blotting for pcdc-2 in peptide-treated HEK 293 cells. The note with it: for pcdc-2 level: HEK 293, 10 μM peptide, 12 h (FIG. 4A); for pcdc-2 level compared to untreated cells: HEK 293, peptide-treated lysates (FIG. 3C, 3D). It counts as cell-based. As to the method: P44 peptide controls the activity of cell cycle regulatory proteins: The minimal dose of P44 peptide that was functionally effective in activating p53 was evaluated by incubating HEK 293 cells with varying concentrations of P44 peptide (1-100 μM) (FIG. 3A) and after 12 h of incubation, protein lysates were prepared and processed for immunoblotting with total p53 (DO-1) and p53 ser-15 phospho-specific antibodies. […] However, there was a 4.5-fold increase in the expression of phosphorylated p53 (pSerine-15 p53) in P44 peptide-treated cells (FIG. 3A, lanes 2-6). To exclude the possibility that p53 activation is an effect of the protein transduction domain of HIV-1 TAT protein, similar set of experiment was performed using TAT-PTD peptide alone (consisting of only the 11-mer TAT-sequence). […] This observation reconfirmed that the RS domain (288-350 aa) of SMAR1 could exclusively activate p53 by mediating its phosphorylation specifically at serine-15 residue. Serine-15 phosphorylation of p53 is associated with its increased transcription efficiency, decreased affinity for MDM2, and its increased nuclear retention. One of the target genes activated by p53 is p21, an inhibitor of a subset of the cyclin-dependent kinases including cdc-2 (Sherr, C. J., and Roberts, J. M. (1999) Genes Dev. 13, 1501-1512). To evaluate the significance of peptide-mediated p53 activation, P44 peptide-treated lysates were further checked for tyrosine 15 phosphorylation of cdc2. […] HEK 293 cells were treated with SM peptide and checked for p53 as well as pcdc-2 levels.
Serine 347 residue of SMAR1: critical for mediating the effects of full-length SMAR1: Once it was established that the serine motif (SSSSYS) plays a pivotal role in SMAR1-mediated p53 activation, it got necessary to identify the serine residue within this motif that might be necessary in mediating these effects. To identify the critical serine residue within P44 peptide, various point-mutant peptides were custom synthesized, that varied with respect to the position of serine residue that was mutated (Table 1). To evaluate the functionality of mutant chimeric TAT-SMAR1 peptides [PS347A, PS348A, PS349A, PS350A and RS mutant (SM)] in comparison to the TAT-SMAR1 WT peptide (P44), HEK 293 cells were treated with 10 μM concentration of either of the peptides and protein lysates were prepared after 12 h incubation period. The lysates were then processed for immunoblotting with pSer-15 p53 and pcdc-2 antibodies. […] However, this was not the case with other mutated peptides. When the alanine was replaced back to serine at the 347 residue (FIG. 4A, lanes 3-5), the functionality of the peptide was restored as observed with increase in pcdc-2 levels. […] However, in case of SM (where serine residues from 347-350 were replaced by alanines) treated cells (FIG. 4A, lane 7), there was no difference in the pSer-15 p53 as well as pcdc-2 levels compared to either untreated or PS347A treated cells (FIG. 4A, lanes 1 and 2, respectively).
FIG. 3. P44 peptide activates p53-mediated cell cycle pathway. A, HEK 293 cells were seeded at a density of 5×10^5 and after 24 h, was incubated with increasing concentrations of the TAT-SMAR1 WT (P44) peptide. Protein lysates were prepared and then immunoblotted with antibodies to total p53, phospho serine-15. B, The same set of experiment was repeated with TAT PTD peptide representing the PTD carrier sequence alone and immunoblotted with phospho serine-15, in comparison of P44 treated cells. C, The status of phospho cdc-2 was further analyzed in P44 peptide treated cells. Total […] was used as an internal control. D, The same set of experiments were again repeated using TAT-SMAR1 RS mutant (SM) peptide and whole cell lysates were probed for phospho p53 serine-15 and pcdc-2 antibodies. […] was used as a loading control.
FIG. 4. Serine 347 residue of SMAR1 mediates p53 activation and stabilization. […]
On the technique in general: Immunoblotting shows a protein as a band on a membrane.

T1 sequence (P04637 whole entry): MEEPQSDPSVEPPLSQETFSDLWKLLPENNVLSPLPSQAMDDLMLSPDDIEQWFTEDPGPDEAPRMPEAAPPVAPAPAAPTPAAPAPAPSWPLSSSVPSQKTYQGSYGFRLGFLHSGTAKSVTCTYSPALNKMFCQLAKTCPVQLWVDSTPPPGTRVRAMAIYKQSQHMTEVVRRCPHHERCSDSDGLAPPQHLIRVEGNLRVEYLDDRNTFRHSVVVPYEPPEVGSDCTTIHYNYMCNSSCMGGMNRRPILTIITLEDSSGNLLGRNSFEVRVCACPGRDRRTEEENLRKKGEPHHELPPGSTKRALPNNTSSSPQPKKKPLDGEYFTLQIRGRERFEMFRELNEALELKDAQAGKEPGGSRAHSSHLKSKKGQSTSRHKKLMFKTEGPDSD

Regarding “YGRKKRRQRRRTAWRRKQRGQSLAVKSFSRRTPSASSYSASETM [PS348A, point mutant of P44, serine 348 replaced by alanine]”, the “p53 activation and stabilization within the nucleus” value in assay [1] is recorded as “p53 stabilization was observed”. Moreover, the pcdc-2 level entry in assay [2] was “increase”.

With “YGRKKRRQRRRTAWRRKQRGQSLAVKSFSRRTPAAAAYSASETM [SM, P44 mutant where serine residues from 347-350 were replaced by alanines]”, in assay [1], the “p53 activation and stabilization within the nucleus” value is “almost negligible expression of p53 within the nucleus”. Also, in assay [2], the pcdc-2 level entry is “no difference” and the “pcdc-2 level compared to untreated cells” value is recorded as “no increase”.

As to “YGRKKRRQRRRTAWRRKQRGQSLAVKSFSRRTPSSSSYSASETM [P44, 33 mer SMAR1 peptide (residues 324-357) conjugated with 11-mer TAT-PTD]”, the “p53 activation and stabilization within the nucleus” value in assay [1] is “activate and stabilize p53 within the nucleus”. In assay [2], the pcdc-2 level result is given as “increase” and the “pcdc-2 level compared to untreated cells” value was “upregulation”.

As to “YGRKKRRQRRRTAWRRKQRGQSLAVKSFSRRTPSSASYSASETM [PS349A, point mutant of P44, serine 349 replaced by alanine]”, the “p53 activation and stabilization within the nucleus” value in assay [1] was “p53 stabilization was observed”. In addition, the pcdc-2 level entry in assay [2] was “increase”.

For the sequence “YGRKKRRQRRRTAWRRKQRGQSLAVKSFSRRTPSSSAYSASETM [PS350A, point mutant of P44, serine 350 replaced by alanine]”, the “p53 activation and stabilization within the nucleus” value in assay [1] was “p53 stabilization was observed”. Also, in assay [2], the pcdc-2 level entry is recorded as “increase”.

In the case of “YGRKKRRQRRRTAWRRKQRGQSLAVKSFSRRTPASSSYSASETM [PS347A, point mutant of P44, serine 347 replaced by alanine]”, the “p53 activation and stabilization within the nucleus” value in assay [1] is listed as “almost negligible expression of p53 within the nucleus”. For the same sequence, the pcdc-2 level result in assay [2] is “decreased”.

Source of the values: patent US8420100B2, “Tumor suppressor activating polypeptides and uses thereof” (Department of Biotechnology, priority 2006, dated 2013).
